Assay results: patent publication US10322131B2, “Hydroxyacid derivatives, a process for their preparation and pharmaceutical compositions containing them” (LES LABORATOIRES SERVIER, priority 2015, dated 2019)

Experiments:
Mcl-1 protein = Mcl-1 protein (Homo sapiens, UniProt Q07820); test: Inhibition of Mcl-1 by the fluorescence polarisation technique; type: binding; details: fluorescence polarisation test; Fluorescein labelled ligand 1 nM, Mcl-1 protein 5 nM, ~2 hours at r.t.; read-out: IC50 (M) Mcl-1 FP
Mcl-1 protein, sequence (Q07820 whole entry): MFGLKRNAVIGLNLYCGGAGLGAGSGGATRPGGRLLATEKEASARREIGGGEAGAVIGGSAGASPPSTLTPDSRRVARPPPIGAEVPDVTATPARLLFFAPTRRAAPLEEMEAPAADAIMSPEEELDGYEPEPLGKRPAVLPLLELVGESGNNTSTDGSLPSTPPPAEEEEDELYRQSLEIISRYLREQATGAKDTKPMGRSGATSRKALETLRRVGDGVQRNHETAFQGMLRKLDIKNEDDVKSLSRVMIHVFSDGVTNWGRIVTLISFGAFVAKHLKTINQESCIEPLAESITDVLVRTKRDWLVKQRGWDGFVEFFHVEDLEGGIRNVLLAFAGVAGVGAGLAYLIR
Method in brief: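 Competitive FP displacement of fluorescein-labelled peptide ligand (1 nM final) from Mcl-1 (5 nM final) in HEPES 10 mM, 150 mM NaCl, 0.05% Tween 20, pH 7.4, 5% DMSO final. Read after ~2 h at r.t.; IC50 from 11-point 4-parameter logistic fit of % mP reduction.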

H929 cells = test: In vitro cytotoxicity (MTT) on H929 multiple myeloma tumour line; type: cell-based; details: Microculture Tetrazolium Assay
Method: The cytotoxicity studies were carried out on the H929 multiple myeloma tumour line.
The cells are distributed onto microplates and exposed to the test compounds for 48 hours.
The cell viability is then quantified by a colorimetric assay, the Microculture Tetrazolium Assay (Cancer Res., 1987, 47, 939-942).

| SMILES | IC50 (Mcl-1 protein) | IC50 (H929 cells; Homo sapiens, NCI-H929, exposed 48 hours) | IC50 (H929 cells; exposed 48 hours) |
| --- | --- | --- | --- |
| Cc1c(-c2c(-c3ccc(F)cc3)sc3ncnc(OC(Cc4ccccc4OCc4ccnc(-c5cccc(COC(=O)NCCN6CCCC6)c5)n4)C(=O)O)c23)ccc(OCCN2CCN(C)CC2)c1Cl [Example 44, (2R)-2-{[(5Sa)-5-{3-chloro-2-methyl-4-[2-(4-methylpiperazin-1-yl)ethoxy]phenyl}-6-(4-fluorophenyl)thieno[2,3-d]pyrimidin-4-yl]oxy}-3-{2-[(2-{3-[({[2-(pyrrolidin-1-yl)ethyl]carbamoyl}oxy)methyl]phenyl}pyrimidin-4-yl)methoxy]phenyl}propanoic acid] | 3.7e-09 M | 28.7 nM |  |
| Cc1c(-c2c(-c3ccc(F)cc3)sc3ncnc(OC(Cc4ccccc4OCc4ccnc(-c5ccc(COC6OC(CO)C(O)C(O)C6O)cc5)n4)C(=O)O)c23)ccc(OCCN2CCN(C)CC2)c1Cl [Example 23, (2R)-2-{[(5Sa)-5-{3-chloro-2-methyl-4-[2-(4-methylpiperazin-1-yl)ethoxy]phenyl}-6-(4-flurophenyl)thieno[2,3-d]pyrimidin-4-yl]oxy}-3-{2-[(2-{4-[(α-D-mannopyranosyloxy)methyl]phenyl}pyrimidin-4-yl)methoxy]phenyl}propanoic acid] | 2.7e-09 M |  | 39.7 nM |
